Among the data in patent US8916557B2, “Substituted 4-Aryl-N-phenyl-1,3,5-triazin-2-amines” (Bayer Intellectual Property GmbH, priority 2011, dated 2014) are IC50 values, retold here.

Each structure is given as a SMILES string. pIC50: −log10 of the molar value.

Assay [1] deals with HeLa human cervical tumour cells. The experiment in a line: Proliferation assay (crystal violet), HeLa. Format: cell-based. Conditions: read-out: Inhibition of HeLa cell proliferation.
The target in a further assay is T1, CDK2/CycE (Homo sapiens, UniProt P24941).
T1 construct: GST; purchased ProQinase GmbH (Freiburg, Germany); host or cells: insect cells (Sf9)
The experiment in a line: CDK2/CycE kinase assay (TR-FRET). It is filed as biochemical. The following applies: Method 2, 10 μM ATP. The source says: 2. CDK2/CycE Kinase Assay:
CDK2/CycE-inhibitory activity of compounds of the present invention was quantified employing the CDK2/CycE TR-FRET assay as described in the following paragraphs:
Recombinant fusion proteins of GST and human CDK2 and of GST and human CycE, expressed in insect cells (Sf9) and purified by Glutathion-Sepharose affinity chromatography, were purchased from ProQinase GmbH (Freiburg, Germany). As substrate for the kinase reaction biotinylated peptide biotin-Ttds-[…] (C-terminus in amid form) was used which can be purchased e.g. form the company JERINI Peptide Technologies (Berlin, Germany).
For the assay 50 nl of a 100fold concentrated solution of the test compound in DMSO was pipetted into a black low volume 384well microtiter plate (Greiner Bio-One, Frickenhausen, Germany), 2 μl of a solution of CDK2/CycE in aqueous assay buffer [50 mM Tris/HCl pH 8.0, 10 mM MgCl2, 1.0 mM dithiothreitol, 0.1 mM sodium ortho-vanadate, 0.01% (v/v) Nonidet-P40 (Sigma)] were added and the mixture was incubated for […] at 22° C. to allow pre-binding of the test compounds to the enzyme before the start of the kinase reaction. Then the kinase reaction was started by the addition of 3 μl of a solution of adenosine-tri-phosphate (ATP, 16.7 μM=>final conc. in the 5 it assay volume is 10 μM) and substrate (1.25 μM=>final conc. in the 5 it assay volume is 0.75 μM) in assay buffer and the resulting mixture was incubated for a reaction time of […] at 22° C. The concentration of CDK2/CycE was adjusted depending of the activity of the enzyme lot and was chosen appropriate to have the assay in the linear range, typical concentrations were in the range of 130 ng/ml. The reaction was stopped by the addition of 5 it of a solution of TR-FRET detection reagents (0.2 μM streptavidine-XL665 [Cisbio Bioassays, Codolet, France] and 1 nM anti-RB(pSer807/pSer811)-antibody from BD Pharmingen [#558389] and 1.2 nM LANCE EU-W1024 labeled anti-mouse IgG antibody [Perkin-Elmer, product no. AD0077]) in an aqueous EDTA-solution (100 mM EDTA, 0.2% (w/v) bovine serum albumin in 100 mM HEPES/NaOH pH 7.0).
(§1) The resulting mixture was incubated 1 h at 22° C. to allow the formation of complex between the phosphorylated biotinylated peptide and the detection reagents. Subsequently the amount of phosphorylated substrate was evaluated by measurement of the resonance energy transfer from the Eu-chelate to the streptavidine-XL. Therefore, the fluorescence emissions at 620 nm and 665 nm after excitation at 350 nm was measured in a TR-FRET reader, e.g. a Rubystar (BMG Labtechnologies, Offenburg, Germany) or a Viewlux (Perkin-Elmer). The ratio of the emissions at 665 nm and at 622 nm was taken as the measure for the amount of phosphorylated substrate.

Another assay concerns the target T2, CDK9/CycT1 (Homo sapiens, UniProt P50750).
T2 construct: Recombinant full-length His-tagged human CDK9 and CycT1; His; purchased Invitrogen PV4131; host or cells: insect cells
The experiment in a line: CDK9/CycT1 kinase assay (TR-FRET). Format: biochemical. Conditions: Method 1, 10 μM ATP.
Description: 1. CDK9/CycT1 Kinase Assay:
CDK9/CycT1-inhibitory activity of compounds of the present invention was quantified employing the CDK9/CycT1 TR-FRET assay as described in the following paragraphs:
Recombinant full-length His-tagged human CDK9 and CycT1, expressed in insect cells and purified by Ni-NTA affinity chromatography, were purchased from Invitrogen (Cat. No PV4131). As substrate for the kinase reaction biotinylated peptide biotin-Ttds-[…] (C-terminus in amid form) was used which can be purchased e.g. form the company JERINI Peptide Technologies (Berlin, Germany). For the assay 50 nl of a 100fold concentrated solution of the test compound in DMSO was pipetted into a black low volume 384well microtiter plate (Greiner Bio-One, Frickenhausen, Germany), 2 μl of a solution of CDK9/CycT1 in aqueous assay buffer [50 mM Tris/HCl pH 8.0, 10 mM MgCl2, 1.0 mM dithiothreitol, 0.1 mM sodium ortho-vanadate, 0.01% (v/v) Nonidet-P40 (Sigma)] were added and the mixture was incubated for 15 min at 22° C. to allow pre-binding of the test compounds to the enzyme before the start of the kinase reaction. Then the kinase reaction was started by the addition of 3 μl of a solution of adenosine-tri-phosphate (ATP, 16.7 μM=>final conc. in the 5 μl assay volume is 10 μM) and substrate (1.67 μM=>final conc. in the 5 μl assay volume is 1 μM) in assay buffer and the resulting mixture was incubated for a reaction time of 25 min at 22° C. The concentration of CDK9/CycT1 was adjusted depending of the activity of the enzyme lot and was chosen appropriate to have the assay in the linear range, typical concentrations were in the range of 1 μg/ml. The reaction was stopped by the addition of 5 μl of a solution of TR-FRET detection reagents (0.2 μM streptavidine-XL665 [Cisbio Bioassays, Codolet, France] and 1 nM anti-RB(pSer807/pSer811)-antibody from BD Pharmingen [#558389] and 1.2 nM LANCE EU-W1024 labeled anti-mouse IgG antibody [Perkin-Elmer, product no. AD0077]) in an aqueous EDTA-solution (100 mM EDTA, 0.2% (w/v) bovine serum albumin in 100 mM HEPES/NaOH pH 7.0).
as §1, with “HTRF” for “TR-FRET”
For orientation: Time-resolved FRET reads energy transfer from a long-lived donor to a nearby acceptor.

T2 sequence (P50750 whole entry): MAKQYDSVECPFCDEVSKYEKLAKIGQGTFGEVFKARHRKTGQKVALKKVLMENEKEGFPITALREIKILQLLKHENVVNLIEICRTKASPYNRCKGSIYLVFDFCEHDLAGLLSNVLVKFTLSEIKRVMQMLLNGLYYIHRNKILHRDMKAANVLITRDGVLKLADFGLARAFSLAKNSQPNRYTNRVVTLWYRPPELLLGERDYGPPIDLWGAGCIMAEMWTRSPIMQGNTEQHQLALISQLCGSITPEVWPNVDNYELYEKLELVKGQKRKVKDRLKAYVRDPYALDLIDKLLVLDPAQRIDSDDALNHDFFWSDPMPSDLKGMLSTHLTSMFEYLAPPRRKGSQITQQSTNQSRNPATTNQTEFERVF
T2 sequence (O60563 whole entry partner): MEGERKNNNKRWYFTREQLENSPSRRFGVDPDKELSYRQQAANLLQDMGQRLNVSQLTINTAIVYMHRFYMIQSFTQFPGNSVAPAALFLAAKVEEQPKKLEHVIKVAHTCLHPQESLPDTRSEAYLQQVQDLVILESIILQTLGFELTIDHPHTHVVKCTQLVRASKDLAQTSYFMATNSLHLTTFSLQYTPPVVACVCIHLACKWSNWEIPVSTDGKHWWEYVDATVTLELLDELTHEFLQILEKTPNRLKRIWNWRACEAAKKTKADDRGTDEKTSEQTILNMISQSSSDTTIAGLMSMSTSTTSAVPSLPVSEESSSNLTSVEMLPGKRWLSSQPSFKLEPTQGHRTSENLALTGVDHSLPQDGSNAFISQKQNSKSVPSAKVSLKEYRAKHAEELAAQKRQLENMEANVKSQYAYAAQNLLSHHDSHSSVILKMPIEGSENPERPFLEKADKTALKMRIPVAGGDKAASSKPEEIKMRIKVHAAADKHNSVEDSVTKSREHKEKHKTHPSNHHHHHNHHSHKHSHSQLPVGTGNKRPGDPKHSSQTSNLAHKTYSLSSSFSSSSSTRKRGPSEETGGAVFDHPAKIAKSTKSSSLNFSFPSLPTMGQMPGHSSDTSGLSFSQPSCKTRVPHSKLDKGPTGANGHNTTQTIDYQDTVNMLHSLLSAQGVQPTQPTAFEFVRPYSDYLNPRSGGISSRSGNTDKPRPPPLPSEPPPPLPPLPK

Consider `COc1cc(F)ccc1-c1ncnc(Nc2cc(Cl)cc(CS(C)(=O)=O)c2)n1` [Example 39, N-{5-Chloro-3-[(methylsulfonyl)methyl]phenyl}-4-(4-fluoro-2-methoxyphenyl)-1,3,5-triazin-2-amine], for which the values for the pIC50 (in assay [1]; on CDK2/CycE; against CDK9/CycT1) were 6.55, 6.72 and 8.05, respectively.
The corresponding values for `COCCOc1cc(F)ccc1-c1ncnc(Nc2cccc(CS(C)(=O)=O)c2)n1` [Example 50, 4-[4-Fluoro-2-(2-methoxyethoxy)phenyl]-N-{3-[(methylsulfonyl)methyl]-phenyl}-1,3,5-triazin-2-amine] are 5.54, 6.31 and 7.42.
Turning to `CC(C)S(=O)(=O)Cc1cccc(Nc2ncnc(-c3cc(F)ccc3OCc3cccc(F)c3)n2)c1` [Example 38, 4-{5-Fluoro-2-[(3-fluorobenzyl)oxy]phenyl}-N-{3-[(prop-2-ylsulfonyl)methyl]phenyl}-1,3,5-triazin-2-amine], the pIC50 is 6.08 in assay [1], 6.49 on CDK2/CycE and 8.22 against CDK9/CycT1.
With `COc1cc(F)ccc1-c1ncnc(Nc2cccc(CS(=O)(=O)C(C)C)c2)n1` [Example 24, 4-(4-Fluoro-2-methoxyphenyl)-N-{3-[(propan-2-ylsulfonyl)methyl]phenyl}-1,3,5-triazin-2-amine], the pIC50 in assay [1] was 6.00; against CDK2/CycE, 6.17; on CDK9/CycT1, 8.15.
Consider `CS(=O)(=O)Cc1cccc(Nc2ncnc(-c3ccc(F)cc3OCC3CCCCC3)n2)c1` [Example 57, 4-[2-(Cyclohexylmethoxy)-4-fluorophenyl]-N-{3-[(methylsulfonyl)methyl]phenyl}-1,3,5-triazin-2-amine], for which the pIC50 in assay [1] is 5.96; against CDK2/CycE, 5.62; against CDK9/CycT1, 8.15.
Regarding `CS(=O)(=O)Cc1cccc(Nc2ncnc(-c3ccccc3OCc3ccc(F)cc3)n2)c1` [Example 25, 4-{2-[(4-Fluorobenzyl)oxy]phenyl}-N-{3-[(methylsulfonyl)methyl]phenyl}-1,3,5-triazin-2-amine], the pIC50 in assay [1] was 6.12; against CDK2/CycE, 5.96; on CDK9/CycT1 it was 8.15.
Turning to `CC(C)CCOc1cc(F)ccc1-c1ncnc(Nc2cccc(CS(C)(=O)=O)c2)n1` [Example 52, 4-[4-Fluoro-2-(3-methylbutoxy)phenyl]-N-{3-[(methylsulfonyl)methyl]phenyl}-1,3,5-triazin-2-amine], the pIC50 in assay [1] is 5.92; against CDK2/CycE it was 5.40; at CDK9/CycT1, 7.80.
The corresponding values for `C[C@@H](Oc1cc(F)ccc1-c1ncnc(Nc2cccc(CS(C)(=O)=O)c2)n1)c1ccc(F)cc1` [Example 67, 4-{4-Fluoro-2-[(1R)-1-(4-fluorophenyl)ethoxy]phenyl}-N-{3-[(methylsulfonyl)-methyl]phenyl}-1,3,5-triazin-2-amine] are 5.80, 5.89 and 8.10.
The corresponding values for `COc1cccc(COc2cc(F)ccc2-c2ncnc(Nc3cccc(CS(C)(=O)=O)c3)n2)c1` [Example 70, 4-{4-Fluoro-2-[(3-methoxybenzyl)oxy]phenyl}-N-{3-[(methylsulfonyl)-methyl]phenyl}-1,3,5-triazin-2-amine] are 5.89, 5.96 and 7.85.
The corresponding values for `COc1cc(F)ccc1-c1ncnc(Nc2cccc(CS(=O)(=O)CCO)c2)n1` [Example 14, 2-[(3-{[4-(4-Fluoro-2-methoxyphenyl)-1,3,5-triazin-2-yl]amino}benzyl)sulfonyl]ethanol] are 6.22, 6.21 and 7.92.
As to `CC(C)S(=O)(=O)Cc1cccc(Nc2ncnc(-c3ccccc3OCc3ccc(F)cc3)n2)c1` [Example 37, 4-{2-[(4-Fluorobenzyl)oxy]phenyl}-N-{3-[(prop-2-ylsulfonyl)methyl]phenyl}-1,3,5-triazin-2-amine], the pIC50 in assay [1] was 5.96; on CDK2/CycE it was 5.60; at CDK9/CycT1, 8.05.
Regarding `COc1cnccc1-c1ncnc(Nc2cccc(CS(C)(=O)=O)c2)n1` [Example 8, 4-(3-Methoxypyridin-4-yl)-N-{3-[(methylsulfonyl)methyl]phenyl}-1,3,5-triazin-2-amine], the values for the pIC50 (in assay [1]; at CDK2/CycE; at CDK9/CycT1) were 5.82, 5.33 and 7.43, respectively.
The corresponding values for `CS(=O)(=O)Cc1cccc(Nc2ncnc(-c3ccc(F)cc3OCc3cccc(C(F)(F)F)c3)n2)c1` [Example 69, 4-(4-Fluoro-2-{[3-(trifluoromethyl)benzyl]oxy}phenyl)-N-{3-[(methylsulfonyl)-methyl]phenyl}-1,3,5-triazin-2-amine] are 5.89, 5.89 and 8.40.
For `CS(=O)(=O)Cc1cccc(Nc2ncnc(-c3ccc(F)cc3OCc3ccc(F)c(F)c3F)n2)c1` [Example 72, 4-{4-Fluoro-2-[(2,3,4-trifluorobenzyl)oxy]-phenyl}-N-{3-[(methylsulfonyl)methyl]-phenyl}-1,3,5-triazin-2-amine] the same measures were 5.94, no more than 4.70 and 8.15.
For `CCCOc1cc(F)ccc1-c1ncnc(Nc2cccc(CS(C)(=O)=O)c2)n1` [Example 43, 4-(4-Fluoro-2-propoxyphenyl)-N-{3-[(methylsulfonyl)-methyl]phenyl}-1,3,5-triazin-2-amine] the same measures were 5.96, 6.07 and 7.92.
For `CCCCCOc1cc(F)ccc1-c1ncnc(Nc2cccc(CS(C)(=O)=O)c2)n1` [Example 45, 4-[4-Fluoro-2-(pentyloxy)phenyl]-N-{3-[(methylsulfonyl)-methyl]phenyl}-1,3,5-triazin-2-amine], the figures for the pIC50 (in assay [1]; on CDK2/CycE; at CDK9/CycT1) were 6.00, 6.00 and 8.40, respectively.
